Source: PubChem BioAssay AID1963837 (Molecular Pharmacology Branch, DTP, NCI, 2024)

Test system: 843126-344-R-J1-PDC complex spheroid viability
Test: Anticancer human tumor 843126-344-R-J1-PDC patient-derived melanoma cell line growth inhibition [POLQ]
Details: for IC50: curve of first compound; for viability, T/C: stronger effect = lower value
Summary of the method: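 Patient-derived tumour cells were co-cultured with HUVEC and mesenchymal stem cells as multicellular spheroids at 37 °C. They were treated with POLQ inhibitors (novobiocin, ART-558, RP6685) alone or combined with other agents. Top concentrations were at or near clinical Cmax (otherwise 10 microM; SN-38 at 1 microM), decreasing in half-log steps.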

[1] = second compound 0.0316 µM, first compound 0.0316 µM
[2] = second compound 0.0316 µM, first compound 0.1 µM
[3] = second compound 0.0316 µM, first compound 0.316 µM
[4] = second compound 0.0316 µM, first compound 1 µM
[5] = second compound 0.0316 µM, first compound 3.16 µM
[6] = second compound 0.0316 µM, first compound 10 µM
[7] = second compound 0.1 µM, first compound 0.0316 µM
[8] = second compound 0.1 µM, first compound 0.1 µM
[9] = second compound 0.1 µM, first compound 0.316 µM
[10] = second compound 0.1 µM, first compound 1 µM
[11] = second compound 0.1 µM, first compound 3.16 µM
[12] = second compound 0.1 µM, first compound 10 µM
[13] = second compound 0.316 µM, first compound 0.0316 µM
[14] = second compound 0.316 µM, first compound 0.1 µM
[15] = second compound 0.316 µM, first compound 0.316 µM
[16] = second compound 0.316 µM, first compound 1 µM
[17] = second compound 0.316 µM, first compound 3.16 µM
[18] = second compound 0.316 µM, first compound 10 µM
[19] = second compound 1 µM, first compound 0.0316 µM
[20] = second compound 1 µM, first compound 0.1 µM
[21] = second compound 1 µM, first compound 0.316 µM
[22] = second compound 1 µM, first compound 1 µM
[23] = second compound 1 µM, first compound 3.16 µM
[24] = second compound 1 µM, first compound 10 µM
[25] = second compound 3.16 µM, first compound 0.0316 µM
[26] = second compound 3.16 µM, first compound 0.1 µM
[27] = second compound 3.16 µM, first compound 0.316 µM
[28] = second compound 3.16 µM, first compound 1 µM
[29] = second compound 3.16 µM, first compound 3.16 µM
[30] = second compound 3.16 µM, first compound 10 µM
[31] = second compound 10 µM, first compound 0.0316 µM
[32] = second compound 10 µM, first compound 0.1 µM
[33] = second compound 10 µM, first compound 0.316 µM
[34] = second compound 10 µM, first compound 1 µM
[35] = second compound 10 µM, first compound 3.16 µM
[36] = second compound 10 µM, first compound 10 µM
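Wherever viability, T/C is given: spheroids exposed to drugs for seven days before readout.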

O=C(c1cc(Cc2n[nH]c(=O)c3ccccc23)ccc1F)N1CCN(C(=O)C2CC2)CC1 + Cc1cccc(N(C)C(=O)C2C(O)CCN2c2nc(C)cc(C(F)(F)F)c2C#N)c1 gave an IC50 (second compound 0.0316 µM) greater than 10 µM, an IC50 (second compound 0.1 µM) greater than 10 µM and an IC50 (second compound 0.316 µM) greater than 10 µM. It also gave an IC50 (second compound 1 µM) greater than 10 µM, an IC50 (second compound 3.16 µM) greater than 10 µM and an IC50 (second compound 10 µM) greater than 10 µM. The viability, T/C [1] was 116%, the viability, T/C [2] was 99.2% and the viability, T/C [3] was 84.3%. For the same compound, the viability, T/C [4] was 82.3%, the viability, T/C [5] was 91.9% and the viability, T/C [6] was 74.2%. The viability, T/C [7] was 110%, the viability, T/C [8] was 98.7% and the viability, T/C [9] was 92.7%. It also gave a viability, T/C [10] of 90.9%, a viability, T/C [11] of 93.7% and a viability, T/C [12] of 67.1%. For the same compound, the viability, T/C [13] was 95.7%, the viability, T/C [14] was 78.8% and the viability, T/C [15] was 89.4%. The viability, T/C [16] was 91.5%, the viability, T/C [17] was 82% and the viability, T/C [18] was 75.7%. The viability, T/C [19] was 85.4%, the viability, T/C [20] was 97.8% and the viability, T/C [21] was 96.9%. The viability, T/C [22] was 97.8%, the viability, T/C [23] was 84.1% and the viability, T/C [24] was 77.6%. It also gave a viability, T/C [25] of 91.5%, a viability, T/C [26] of 83.3% and a viability, T/C [27] of 88.8%. The viability, T/C [28] was 89.6%, the viability, T/C [29] was 84.2% and the viability, T/C [30] was 71.2%. It also gave a viability, T/C [31] of 83.8%, a viability, T/C [32] of 102% and a viability, T/C [33] of 85.8%. It also gave a viability, T/C [34] of 92.1%, a viability, T/C [35] of 103% and a viability, T/C [36] of 78.8%.

C=CC(=O)N1CCN(c2nc(=O)n(-c3c(C)ccnc3C(C)C)c3nc(-c4c(O)cccc4F)c(F)cc23)C(C)C1 (centres undefined) + Cc1cccc(N(C)C(=O)C2C(O)CCN2c2nc(C)cc(C(F)(F)F)c2C#N)c1 showed an IC50 (second compound 0.0316 µM) greater than 10 µM, an IC50 (second compound 0.1 µM) greater than 10 µM and an IC50 (second compound 0.316 µM) greater than 10 µM. It also gave an IC50 (second compound 1 µM) greater than 10 µM, an IC50 (second compound 3.16 µM) greater than 10 µM and an IC50 (second compound 10 µM) greater than 10 µM. It also gave a viability, T/C [1] of 87.6%, a viability, T/C [2] of 95.2% and a viability, T/C [3] of 122%. The viability, T/C [4] was 94.6%, the viability, T/C [5] was 89.6% and the viability, T/C [6] was 78.6%. It also gave a viability, T/C [7] of 81.8%, a viability, T/C [8] of 81.3% and a viability, T/C [9] of 94.7%. For the same compound, the viability, T/C [10] was 97%, the viability, T/C [11] was 80.7% and the viability, T/C [12] was 80.7%. It also gave a viability, T/C [13] of 81.3%, a viability, T/C [14] of 85.6% and a viability, T/C [15] of 91.1%. It also gave a viability, T/C [16] of 107%, a viability, T/C [17] of 84% and a viability, T/C [18] of 69.9%. The viability, T/C [19] was 89.7%, the viability, T/C [20] was 84.7% and the viability, T/C [21] was 84.2%. The viability, T/C [22] was 90.2%, the viability, T/C [23] was 106% and the viability, T/C [24] was 71.3%. The viability, T/C [25] was 91.2%, the viability, T/C [26] was 74.5% and the viability, T/C [27] was 104%. The viability, T/C [28] was 91.5%, the viability, T/C [29] was 120% and the viability, T/C [30] was 66.8%. It also gave a viability, T/C [31] of 77.1%, a viability, T/C [32] of 81% and a viability, T/C [33] of 89.2%. The viability, T/C [34] was 89.5%, the viability, T/C [35] was 83.5% and the viability, T/C [36] was 70.1%.
